Laboratory results: article PMC2813745, “A novel inhibitor of the PI3K/Akt pathway based on the structure of inositol 1,3,4,5,6-pentakisphosphate” (British Journal of Cancer, 2010)

Tests used:
PDK1 = molecular target: T1, PDK1 (Homo sapiens, UniProt O15530); assay: SelectScreen kinase profiling: PDK1; assay type: biochemical; conditions: 1 µM compound; [ATP] 100 µM; single point
T1 sequence (O15530 1-556): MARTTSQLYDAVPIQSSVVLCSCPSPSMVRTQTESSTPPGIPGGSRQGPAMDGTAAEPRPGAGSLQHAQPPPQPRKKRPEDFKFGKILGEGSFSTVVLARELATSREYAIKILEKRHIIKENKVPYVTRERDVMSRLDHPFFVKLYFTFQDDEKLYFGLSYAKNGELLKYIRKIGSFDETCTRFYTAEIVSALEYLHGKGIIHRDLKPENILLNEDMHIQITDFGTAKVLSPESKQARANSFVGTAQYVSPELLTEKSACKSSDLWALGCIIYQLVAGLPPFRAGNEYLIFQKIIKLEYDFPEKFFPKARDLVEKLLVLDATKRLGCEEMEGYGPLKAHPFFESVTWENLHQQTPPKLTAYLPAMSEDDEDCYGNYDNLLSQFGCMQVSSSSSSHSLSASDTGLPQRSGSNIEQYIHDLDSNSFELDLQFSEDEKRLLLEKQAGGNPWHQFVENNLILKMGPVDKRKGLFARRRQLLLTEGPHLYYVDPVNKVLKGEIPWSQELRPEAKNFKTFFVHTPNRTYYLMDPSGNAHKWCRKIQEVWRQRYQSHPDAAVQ
Description: Effect of the indicated compounds on the activity of various kinases was assessed by SelectScreen Kinase Profiling Service (Invitrogen-Life Technologies, Paisley, UK). Assays were performed using 1 μM of the tested compounds and ATP concentration as indicated in the corresponding tables. In the case of […] a screen using 10 μM of the compound was also carried out, as indicated in the corresponding table.

MCF7 = assay: Cell survival by cell counting, MCF7; assay type: cell-based, human; conditions: MCF7, 72 h, 20 nM 4-OH Tamoxifen, 50 μM 2-O-Bn-InsP5 alone or in combination
Description: Cells seeded in a 24-well plate were treated with the indicated compounds in serum free DMEM or DMEM containing 0.5% FBS (PC3). After 72 h, the number of surviving cells was assessed by manual cell counting or by using the cell counter CDA-500 (Sysmex, Milton Keynes, UK). Alternatively, after 48 h, the number of apoptotic cells was assessed by acridine orange/ethidium bromide assay as described ([Piccolo et al, 2004]; [Maffucci et al, 2005]). SRB test was carried out in SKOV-3 and PC3 seeded in 96-well plate (3800 cells per well or 5800 cells per well, respectively) after 72 h of treatment as described ([Cappella et al, 2001]).
Data are mean±s.e. of n=4 independent experiments carried out in duplicate. […] Data are mean±s.e. of n=5 independent experiments carried out in duplicate. […] Data are mean±s.e. of n=6 independent experiments carried out in duplicate. […] Data are mean±s.e. of n=2 independent experiments carried out in duplicate. In all cases (A–D), cells were treated for 72 h and the number of surviving cells was assessed by cell counting. […] In all cases (E, F), cells were treated for 72 h and the number of surviving cells was assessed by SRB assay and data are mean±s.e. of two experiments carried out in quadruplicate.

Compound | % Inhibition Mean (PDK1) [%] | number of surviving cells (MCF7)
O=P(O)(O)O[C@H]1[C@H](O)[C@@H](OP(=O)(O)O)[C@H](OP(=O)(O)O)[C@@H](OP(=O)(O)O)[C@H]1O [Ins(1,3,4,5)P4] | 56 | –
O=P(O)(O)O[C@@H]1[C@H](O)[C@H](O)[C@@H](OP(=O)(O)O)[C@H](OP(=O)(O)O)[C@H]1O [Ins(1,4,5)P3] | 17 | –
4-hydroxy-tamoxifen [4-OH tamoxifen, reference compound] | – | reduced the number of surviving cells
O=P(O)(O)O[C@H]1[C@H](OP(=O)(O)O)[C@@H](OP(=O)(O)O)[C@H](OP(=O)(O)O)[C@@H](OP(=O)(O)O)[C@H]1OP(=O)(O)O [Ins(1,2,3,4,5,6)P6] | 18 | –

Continued, in another order:

% Inhibition Mean (PDK1) [%] | Compound | number of surviving cells (MCF7)
33 | O=P(O)(O)O[C@H]1[C@H](OP(=O)(O)O)[C@@H](OP(=O)(O)O)[C@@H](O)[C@@H](O)[C@@H]1OP(=O)(O)O [Ins(1,4,5,6)P4] | –
35 | O=P(O)(O)O[C@H]1[C@H](OP(=O)(O)O)[C@@H](OP(=O)(O)O)[C@@H](O)[C@@H](O)[C@@H]1OP(=O)(O)O [Ins(3,4,5,6)P4] | –
